The record followed here is US8618153B2, “Hepatitis C virus inhibitors” (Bristol-Myers Squibb Company, priority 2009, dated 2013).

Usually EC50 stands for the midpoint of the concentration-response curve.

One test concerns HCV 1b genotype. Briefly: HCV Replicon assay (HCV-neo replicon cells), 1b genotype. Type of test: cell-based. The settings on record: Hepatitis C virus; HCV 1b genotype replicon; numeric value; read-out: 1b EC50 (in μM or range). How it is done: An HCV Replicon assay was utilized in the present disclosure, and was prepared, conducted and validated as described in commonly owned PCT/US2006/022197 and in O'Boyle et al., Antimicrob. Agents Chemother., 49(4):1346-1353 (April 2005). Assay methods incorporating luciferase reporters have also been used as described (Apath.com).
HCV-neo replicon cells and replicon cells containing mutations in the NS5A region were used to test the currently described family of compounds. The compounds were determined to have more than 10-fold less inhibitory activity on cells containing mutations than wild-type cells. Thus, the compounds of the present disclosure can be effective in inhibiting the function of the HCV NS5A protein and are understood to be as effective in combinations as previously described in application PCT/US2006/022197 and commonly owned WO 04/014852. Further, the compounds of the present disclosure can be effective against the HCV 1b genotype. It should also be understood that the compounds of the present disclosure can inhibit multiple genotypes of HCV. […] In one embodiment compounds of the present disclosure are inhibitory versus 1a, 1b, 2a, 2b, 3a, 4a, and 5a genotypes. […] The compounds of the present disclosure may inhibit HCV by mechanisms in addition to or other than NS5A inhibition. In one embodiment the compounds of the present disclosure inhibit HCV replicon and in another embodiment the compounds of the present disclosure inhibit NS5A.
For orientation: A replicon is a self-replicating genome or part of one, used to study replication in cells.
Turning to `C[C@H](NC(=O)[C@@H](c1ccccc1)N(C)C)c1ncc(-c2cccc(-c3cnc(-c4c[nH]c([C@@H]5CCCN5C(=O)[C@@H](c5ccccc5)N(C)C)n4)o3)c2)[nH]1` [Example 24, (2R)-2-(Dimethylamino)-N-((1S)-1-(4-(3-(2-(2-((2S)-1-((2R)-2-(dimethylamino)-2-phenylacetyl)-2-pyrrolidinyl)-1H-imidazol-4-yl)-1,3-oxazol-5-yl)phenyl)-1H-imidazol-2-yl)ethyl)-2-phenylacetamide], the EC50 amounted to 0.00181 µM.
Still for that read-out and setting: the result for `COC(=O)N[C@@H](C(=O)N1CCC[C@H]1c1ncc(-c2ccc(-c3cnc(-c4c[nH]c([C@@H]5CCCN5C(=O)OCc5ccccc5)n4)o3)cc2)[nH]1)c1ccccc1` [Example 27, Benzyl (2S)-2-(4-(5-(4-(2-((2S)-1-((2R)-2-((methoxycarbonyl)amino)-2-phenylacetyl)-2-pyrrolidinyl)-1H-imidazol-4-yl)phenyl)-1,3-oxazol-2-yl)-1H-imidazol-2-yl)-1-pyrrolidinecarboxylate] reads 0.00671 µM; that for `CCN(CC)[C@@H](C(=O)N1CCC[C@H]1c1nc(/C=C/c2ccc(/C=C/c3cnc([C@@H]4CCCN4C(=O)[C@@H](c4ccccc4)N(CC)CC)[nH]3)cc2)c[nH]1)c1ccccc1` [Example 35, (1R)-2-((2S)-2-(4-((E)-2-(4-((E)-2-(2-((2S)-1-((2R)-2-(diethylamino)-2-phenylacetyl)-2-pyrrolidinyl)-1H-imidazol-5-yl)vinyl)phenyl)vinyl)-1H-imidazol-2-yl)-1-pyrrolidinyl)-N,N-diethyl-2-oxo-1-phenylethanamine], 0.00014 µM.

Still in this test, the particulars now being: Hepatitis C virus; HCV 1b genotype replicon; value given as range class; read-out: 1b EC50 (in μM or range).
Take `COC(=O)N[C@H](C(=O)N1CCC[C@H]1c1ncc(-c2cnc(-c3ncc(-c4cnc([C@@H]5CCCN5C(=O)[C@@H](NC(=O)OC)[C@@H](C)OC)[nH]4)s3)s2)[nH]1)[C@@H](C)OC` [Example 19, Methyl ((1S,2R)-2-methoxy-1-(((2S)-2-(4-(5′-(2-((2S)-1-(N-(methoxycarbonyl)-O-methyl-L-threonyl)-2-pyrrolidinyl)-1H-imidazol-4-yl)-2,2′-bi-1,3-thiazol-5-yl)-1H-imidazol-2-yl)-1-pyrrolidinyl)carbonyl)propyl)carbamate]: the EC50 fell in the range of 0.001 to 0.01 µM.
On the same count and under the same terms, the result for `COC(=O)N[C@@H](C)C(=O)N1CCC[C@H]1c1ncc(-c2cnc(-c3ncc(-c4cnc([C@@H]5CCCN5C(=O)[C@H](C)NC(=O)OC)[nH]4)s3)s2)[nH]1` [Example 20, Methyl ((1S)-2-((2S)-2-(4-(5′-(2-((2S)-1-(N-(methoxycarbonyl)-L-alanyl)-2-pyrrolidinyl)-1H-imidazol-4-yl)-2,2′-bi-1,3-thiazol-5-yl)-1H-imidazol-2-yl)-1-pyrrolidinyl)-1-methyl-2-oxoethyl)carbamate] reads 0.001 to 0.01 µM.
Same read-out and setting: as for `COC(=O)N[C@@H](C(=O)N1CCC[C@H]1c1nc(-c2ncc(-c3cccc(-c4cnc([C@@H]5CCCN5C(=O)[C@H](NC(=O)OC)c5ccccc5)[nH]4)c3)o2)c[nH]1)c1ccccc1` [Example 21, Methyl ((1R)-2-((2S)-2-(4-(3-(2-(2-((2S)-1-((2R)-2-((methoxycarbonyl)amino)-2-phenylacetyl)-2-pyrrolidinyl)-1H-imidazol-4-yl)-1,3-oxazol-5-yl)phenyl)-1H-imidazol-2-yl)-1-pyrrolidinyl)-2-oxo-1-phenylethyl)carbamate], the figure is under 0.001 µM; as for `CN(C)[C@@H](C(=O)N1CCC[C@H]1c1nc(-c2ncc(-c3cccc(-c4cnc([C@@H]5CCCN5C(=O)[C@@H](c5ccccc5)N(C)C)[nH]4)c3)o2)c[nH]1)c1ccccc1` [Example 22, (1R)-2-((2S)-2-(4-(3-(2-(2-((2S)-1-((2R)-2-(Dimethylamino)-2-phenylacetyl)-2-pyrrolidinyl)-1H-imidazol-4-yl)-1,3-oxazol-5-yl)phenyl)-1H-imidazol-2-yl)-1-pyrrolidinyl)-N,N-dimethyl-2-oxo-1-phenylethanamine], 0.001 to 0.01 µM; as for `COC(=O)N[C@@H](C(=O)N[C@@H](C)c1ncc(-c2cccc(-c3cnc(-c4c[nH]c([C@@H]5CCCN5C(=O)[C@H](NC(=O)OC)c5ccccc5)n4)o3)c2)[nH]1)c1ccccc1` [Example 23, Methyl ((1R)-2-((2S)-2-(4-(5-(3-(2-((1S)-1-(((2R)-2-((methoxycarbonyl)amino)-2-phenylacetyl)amino)ethyl)-1H-imidazol-4-yl)phenyl)-1,3-oxazol-2-yl)-1H-imidazol-2-yl)-1-pyrrolidinyl)-2-oxo-1-phenylethyl) carbamate], 0.001 to 0.01 µM.
Same read-out and setting: as for `COC(=O)N[C@@H](C(=O)N1CCC[C@H]1c1nc(-c2ncc(-c3ccc(-c4cnc([C@@H]5CCCN5C(=O)[C@H](NC(=O)OC)c5ccccc5)[nH]4)cc3)o2)c[nH]1)c1ccccc1` [Example 25, Methyl ((1R)-2-((2S)-2-(4-(4-(2-(2-((2S)-1-((2R)-2-((methoxycarbonyl)amino)-2-phenylacetyl)-2-pyrrolidinyl)-1H-imidazol-4-yl)-1,3-oxazol-5-yl)phenyl)-1H-imidazol-2-yl)-1-pyrrolidinyl)-2-oxo-1-phenylethyl)carbamate], the figure is 0.001 to 0.01 µM; as for `CN(C)[C@@H](C(=O)N1CCC[C@H]1c1nc(-c2ncc(-c3ccc(-c4cnc([C@@H]5CCCN5C(=O)[C@@H](c5ccccc5)N(C)C)[nH]4)cc3)o2)c[nH]1)c1ccccc1` [Example 26, (1R)-2-((2S)-2-(4-(4-(2-(2-((2S)-1-((2R)-2-(Dimethylamino)-2-phenylacetyl)-2-pyrrolidinyl)-1H-imidazol-4-yl)-1,3-oxazol-5-yl)phenyl)-1H-imidazol-2-yl)-1-pyrrolidinyl)-N,N-dimethyl-2-oxo-1-phenylethanamine], 0.001 to 0.01 µM.
Take `CN(C)[C@@H](C(=O)N1CCC[C@H]1c1ncc(-c2ccc(-c3cnc(-c4c[nH]c([C@@H]5CCCN5C(=O)OCc5ccccc5)n4)o3)cc2)[nH]1)c1ccccc1` [Example 28, Benzyl (2S)-2-(4-(5-(4-(2-((2S)-1-((2R)-2-((N,N-dimethyl)amino)-2-phenylacetyl)-2-pyrrolidinyl)-1H-imidazol-4-yl)phenyl)-1,3-oxazol-2-yl)-1H-imidazol-2-yl)-1-pyrrolidinecarboxylate]: the EC50 fell in the range of 0.001 to 0.01 µM.
Regarding `COC(=O)N[C@@H](C(=O)N1CCC[C@H]1c1ncc(C#CC#Cc2cnc([C@@H]3CCCN3C(=O)[C@H](NC(=O)OC)c3ccccc3)[nH]2)[nH]1)c1ccccc1` [Example 29, Dimethyl (1R,1′R)-2,2′-((2S,2′S)-2,2′-(5,5′-(buta-1,3-diyne-1,4-diyl)bis(1H-imidazole-5,2-diyl))bis(pyrrolidine-2,1-diyl))bis(2-oxo-1-phenylethane-2,1-diyl)dicarbamate], the EC50 is under 0.001 µM.
Same read-out and setting: as for `O=C([C@@H](c1ccccc1)N1CCCCC1)N1CCC[C@H]1c1ncc(C#CC#Cc2cnc([C@@H]3CCCN3C(=O)[C@@H](c3ccccc3)N3CCCCC3)[nH]2)[nH]1` [Example 30, (2R,2′R)-1,1′-((2S,2′S)-2,2′-(5,5′-(Buta-1,3-diyne-1,4-diyl)bis(1H-imidazole-5,2-diyl))bis(pyrrolidine-2,1-diyl))bis(2-phenyl-2-(piperidin-1-yl)ethanone)], the figure is under 0.001 µM; as for `COC(=O)N[C@H](C(=O)N1CCC[C@H]1c1ncc(C#CC#Cc2cnc([C@@H]3CCCN3C(=O)[C@@H](NC(=O)OC)C(C)C)[nH]2)[nH]1)C(C)C` [Example 31, Dimethyl (2S,2′S)-1,1′-((2S,2′S)-2,2′-(5,5′-(buta-1,3-diyne-1,4-diyl)bis(1H-imidazole-5,2-diyl))bis(pyrrolidine-2,1-diyl))bis(3-methyl-1-oxobutane-2,1-diyl)dicarbamate], under 0.001 µM; as for `COC(=O)N[C@@H](C)C(=O)N1CCC[C@H]1c1ncc(C#CC#Cc2cnc([C@@H]3CCCN3C(=O)[C@H](C)NC(=O)OC)[nH]2)[nH]1` [Example 32, Dimethyl (2S,2′S)-1,1′-((2S,2′S)-2,2′-(5,5′-(buta-1,3-diyne-1,4-diyl)bis(1H-imidazole-5,2-diyl))bis(pyrrolidine-2,1-diyl))bis(1-oxopropane-2,1-diyl)dicarbamate], 0.01 to 10 µM.
Same read-out and setting: as for `COC(=O)N[C@H](C(=O)N1CCC[C@H]1c1ncc(C#Cc2ccc(-c3ccc(-c4cnc([C@@H]5CCCN5C(=O)[C@@H](NC(=O)OC)C(C)C)[nH]4)cc3)cc2)[nH]1)C(C)C` [Example 33, Methyl ((1S)-1-(((2S)-2-(4-(4′-((2-((2S)-1-((2S)-2-((methoxycarbonyl)amino)-3-methylbutanoyl)-2-pyrrolidinyl)-1H-imidazol-4-yl)ethynyl)-4-biphenylyl)-1H-imidazol-2-yl)-1-pyrrolidinyl)carbonyl)-2-methylpropyl)carbamate], the figure is under 0.001 µM; as for `COC(=O)N[C@H](C(=O)N1[C@@H]2C[C@@H]2C[C@H]1c1ncc(C#CC#Cc2cnc([C@@H]3C[C@H]4C[C@H]4N3C(=O)[C@@H](NC(=O)OC)C3CCOCC3)[nH]2)[nH]1)C1CCOCC1` [Example 34, Dimethyl (1,3-butadiyne-1,4-diylbis(1H-imidazole-4,2-diyl(1R,3S,5R)-2-azabicyclo[3.1.0]hexane-3,2-diyl((1S)-2-oxo-1-(tetrahydro-2H-pyran-4-yl)-2,1-ethanediyl)))biscarbamate], 0.001 to 0.01 µM.
